Source: patent publication US20260373119A1, “NOVEL COMPOUND, AND COMPOSITION FOR PREVENTING OR TREATING HER2-POSITIVE CANCER, COMPRISING SAME” (EWHA UNIVERSITY - INDUSTRY COLLABORATION FOUNDATION, priority 2022, published 2026)

How the values were obtained:
Ki-67 = test: JIMT-1 xenograft, Ki-67; format: in vivo, mice; details: 4 mg/kg, vs TZMB-treated group
Protocol: (§1) Xenograft mice were generated to evaluate the anticancer effects of the candidate compound. NCI-N87 and JIMT-1 cells (5×10^6 cells), dissolved in 100 μL of 1× phosphate-buffered saline (PBS), were subcutaneously injected into the right flanks of 5-week-old female athymic nude mice (Envigo, USA) or 4-week-old female NOD-SCID mice (Koatech, South Korea). When the tumors reached a volume of 90-100 mm^3, the mice were randomized into designated groups. For the NCI-N87 xenograft, intravenous administration was performed six times at 3-day intervals. For the JIMT-1 xenograft, intraperitoneal administration was performed eight times at 3-day intervals. […] Tumor size changes were monitored until the mean tumor size in the control group reached 2,000-2,500 mm^3. On day 28 for the NCI-N87 xenograft and day 46 for the JIMT-1 xenograft, the mice were sacrificed, and tumors were excised to determine relative tumor sizes. Tumor length (L) and width (W) were measured with calipers, and tumor volume was calculated using the formula: […]
(§2) For immunohistochemistry (IHC) analysis, tumors from the xenograft models were prepared as paraffin-embedded sections. […] The control group was counterstained with hematoxylin, and the IHC staining was evaluated under an optical microscope at 200× magnification.

HER2 = test: JIMT-1 xenograft, HER2 levels; format: in vivo, mice; details: 4 mg/kg
Protocol: as §1, §2

MED23^D400A/H449G = biological target: T1, MED23^D400A/H449G (Homo sapiens, UniProt Q9ULK4, D400A/H449G); test: LC-MS/MS protein-small molecule interaction, double mutant; format: binding; details: FLAG pulldown
T1 construct: FLAG pulldown, LC-MS/MS
Protocol: HEK293 cells were seeded in a […] and incubated until they reached 70-80% confluency. The cells were transfected with p3Xflag-myc-CMV26-MED23^WT and p3Xflag-myc-CMV26-MED23^D400A/H449G plasmids for 24 hours, followed by lysis to obtain protein extracts. To isolate the candidate compound (YK1) bound to MED23, total lysates were incubated with YK1 for 4 hours and subsequently subjected to pulldown using FLAG-agarose beads (Sigma Aldrich, USA). The precipitated beads were washed at least three times to completely remove unbound compounds. To separate the candidate compound from the precipitated MED23, 50 μL of the sample was extracted with 1 mL of acetonitrile and centrifuged at 13,000 rpm at 4 °C for 10 minutes. The supernatant (1,000 μL) from each sample was transferred to a new tube and dried under nitrogen gas at 37 °C. For YK1 analysis, the residue was dissolved in 50 μL of ACN and vortexed for 10 minutes. […] The mixture was then extracted with 450 μL of ACN by ultrasonic treatment and vortex mixing. The candidate compound bound to MED23 was finally analyzed using an Agilent 6460 triple quadrupole mass spectrometer (Agilent Technologies, USA).

MED23-ELK1 PPI = biological target: T2, MED23-ELK1 PPI (Homo sapiens, UniProt Q9ULK4); test: immunoprecipitation, MED23-ELK1 PPI; format: cell-based
T2 construct: co-immunoprecipitation of ELK1, probably endogenous
Protocol: NCI-N87 cells from a gastric cancer cell line were seeded in a 100 mm cell culture dish and cultured until they reached 60-70% confluence. The cultured cells were transfected with p3Xflag-myc-CMV26-empty or p3Xflag-myc-CMV26-MED23^WT plasmids using Lipofectamine® 2000 (Invitrogen, USA). After transfection, YK1 (5 μM) was added 12 hours post-transfection, and the cells were cultured for 12 hours. A total of 750 μg of cell lysate was incubated with 20 μL of FLAG-agarose bead slurry (Sigma Aldrich, USA) on a rotator at 4 °C for 4 hours. The sample was centrifuged at 12,000 rpm for 1 minute to precipitate the beads. After removing the supernatant, the remaining beads were washed three times with 200 μL of lysis buffer (RIPA).
After removing the final supernatant, the beads were eluted by boiling with 2× sample buffer at 98 °C for 5 minutes. The immunoprecipitated proteins were loaded, separated by SDS-PAGE, and analyzed by Western blotting.

[1] = biological target: Nluc-ELF3 / Cluc-MED23391-462 (Homo sapiens, UniProt Q9ULK4); test: split luciferase biosensor assay; format: cell-based; details: dose-dependent
Protocol: The biosensor used for the assay was prepared using the In-Fusion® HD Cloning Kit with firefly (Photinus pyralis) luciferase. The luciferase enzyme was split into two fragments (Nluc and Cluc). The full-length ELF3 (wild-type) and MED23 mutants were cloned into the […] and KpnI sites, and the NotI and KpnI sites of p3Xflag-myc-CMV26, respectively. The full-length cDNA of human ELF3 (accession number NM_001114309.1) was fused to the N-terminal fragment of split luciferase (Nluc), while the […] of MED23 (accession number NM_001270521.1) was fused to the C-terminal of split luciferase (Cluc).
Bioluminescence intensity, complementarily generated by ELF3-MED23 binding, was measured using this method (FIG. 3B).

EGFR = EGFR (Homo sapiens, UniProt P00533); test: kinase profiling, EGFR; format: biochemical; details: read-out: In vitro kinase inhibitory activity (%)
Protocol: Kinase inhibitory activity of the candidate compound at 10 μM and 25 μM was assessed using Eurofins Kinase Profiling Services. Inhibitory effects on c-RAF, EGFR, ErbB2, ErbB4, and PI3 kinase were analyzed according to the Kinase Profiler Service Assay protocol.

HER2 protein = HER2 protein expression; format: cell-based; details: dose-dependent
Protocol: For western blot analysis, cells were seeded in a 6-well plate and lysed in 1×RIPA lysis buffer (Cell Signaling, USA) containing 1% 0.1 M [COMPOUND LEFT OUT] and 1% 100× protease inhibitor cocktail solution (Genedepot, USA). Total protein levels were standardized using the Pierce™ BCA Protein Assay Kit (Thermo Fisher Scientific, USA) and a microplate reader (Tecan Group Ltd., Switzerland). A total of 20 μg of protein was loaded onto a 10-15% SDS-PAGE acrylamide gel and transferred to a 0.2 μm PVDF membrane (Pall Life Science, USA). The membrane was blocked with 5% skim milk or 5% BSA, and the membrane was cultured with primary antibodies (purchased from Thermo Fisher, Cell Signaling, Santa Cruz, Novus, or MBL) at room temperature for 3 hours or overnight at 4 °C. The blot was washed three times with Tris-buffered saline containing 0.1% Tween20 (1×TBST) and incubated with an HRP-conjugated secondary antibody (GeneTex, USA). Protein bands were detected using ECL solution reagents (GE Healthcare, USA) and the LAS-3000 imaging system (Fuji Photo Film Co., Ltd., Japan), and captured images were analyzed using Multi-Gauge software (Fuji Photo Film Co. Ltd.). The preparation of cell lysates for subsequent analyses was performed using the same method as described for western blot analysis.

Sequence of EGFR (P00533 669-1210 limits assumed): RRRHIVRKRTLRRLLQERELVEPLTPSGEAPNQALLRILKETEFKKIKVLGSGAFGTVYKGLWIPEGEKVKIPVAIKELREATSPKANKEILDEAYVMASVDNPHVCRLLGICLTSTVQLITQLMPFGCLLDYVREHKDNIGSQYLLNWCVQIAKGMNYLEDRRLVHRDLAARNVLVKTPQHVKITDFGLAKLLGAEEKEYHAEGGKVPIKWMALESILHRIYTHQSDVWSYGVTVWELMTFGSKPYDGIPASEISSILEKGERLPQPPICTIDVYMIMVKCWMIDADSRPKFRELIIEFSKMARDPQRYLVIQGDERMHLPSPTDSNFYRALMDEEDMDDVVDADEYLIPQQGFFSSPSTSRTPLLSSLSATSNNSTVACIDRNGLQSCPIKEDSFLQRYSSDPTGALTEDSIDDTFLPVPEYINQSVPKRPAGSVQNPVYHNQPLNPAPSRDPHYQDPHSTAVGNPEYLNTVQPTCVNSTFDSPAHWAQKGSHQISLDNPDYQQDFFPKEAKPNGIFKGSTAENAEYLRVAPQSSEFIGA
T1 sequence (Q9ULK4 whole entry D400A/H449G): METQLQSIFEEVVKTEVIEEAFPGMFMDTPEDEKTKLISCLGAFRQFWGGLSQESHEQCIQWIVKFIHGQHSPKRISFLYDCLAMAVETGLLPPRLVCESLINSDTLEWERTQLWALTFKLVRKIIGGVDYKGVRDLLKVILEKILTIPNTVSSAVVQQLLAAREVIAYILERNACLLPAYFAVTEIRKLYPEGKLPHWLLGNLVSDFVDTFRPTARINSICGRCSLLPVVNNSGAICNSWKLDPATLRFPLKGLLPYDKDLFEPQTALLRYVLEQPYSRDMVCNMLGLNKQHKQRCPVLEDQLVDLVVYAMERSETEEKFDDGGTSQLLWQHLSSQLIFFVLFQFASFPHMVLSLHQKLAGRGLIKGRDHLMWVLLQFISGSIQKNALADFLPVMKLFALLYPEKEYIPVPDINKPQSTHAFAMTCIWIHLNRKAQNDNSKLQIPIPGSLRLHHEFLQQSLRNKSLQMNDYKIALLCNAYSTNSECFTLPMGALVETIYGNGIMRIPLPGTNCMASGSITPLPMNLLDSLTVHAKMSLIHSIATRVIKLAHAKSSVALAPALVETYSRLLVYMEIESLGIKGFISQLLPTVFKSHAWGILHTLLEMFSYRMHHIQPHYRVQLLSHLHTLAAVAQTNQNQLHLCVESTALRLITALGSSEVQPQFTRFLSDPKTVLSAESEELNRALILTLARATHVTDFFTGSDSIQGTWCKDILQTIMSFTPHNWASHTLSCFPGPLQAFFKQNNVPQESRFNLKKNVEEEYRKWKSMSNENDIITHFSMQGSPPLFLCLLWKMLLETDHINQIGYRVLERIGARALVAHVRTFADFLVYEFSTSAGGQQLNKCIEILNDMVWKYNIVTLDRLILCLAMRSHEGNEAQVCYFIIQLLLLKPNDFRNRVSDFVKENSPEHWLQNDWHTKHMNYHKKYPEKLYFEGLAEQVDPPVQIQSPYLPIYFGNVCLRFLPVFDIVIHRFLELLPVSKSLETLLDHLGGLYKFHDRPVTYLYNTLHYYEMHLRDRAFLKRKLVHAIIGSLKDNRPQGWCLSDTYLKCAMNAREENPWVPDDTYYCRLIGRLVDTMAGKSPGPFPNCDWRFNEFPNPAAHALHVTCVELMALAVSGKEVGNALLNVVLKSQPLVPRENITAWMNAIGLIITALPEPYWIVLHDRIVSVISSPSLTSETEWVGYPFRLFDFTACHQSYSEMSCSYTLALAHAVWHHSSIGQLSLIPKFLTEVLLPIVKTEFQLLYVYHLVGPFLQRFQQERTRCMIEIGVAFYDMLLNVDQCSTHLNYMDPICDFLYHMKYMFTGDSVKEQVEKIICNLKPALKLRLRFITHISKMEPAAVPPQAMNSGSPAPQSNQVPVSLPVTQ
Sequence of Nluc-ELF3 / Cluc-MED23391-462 (Q9ULK4 391-462): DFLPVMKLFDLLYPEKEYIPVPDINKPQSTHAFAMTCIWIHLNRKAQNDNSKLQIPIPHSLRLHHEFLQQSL
T2 sequence (Q9ULK4 whole entry): as the sequence (Q9ULK4 whole entry D400A/H449G) above, with A400D, G449H counted along it

## CC(=O)N1N=C(c2cccc(O)c2)CC1c1ccc(Cl)cc1 (centres unmarked) [Compound 15, 1-[5-(4-Chlorophenyl)-3-(3-hydroxyphenyl)-4,5-dihydropyrazol-1-yl]-ethanone]
Ki-67
  proliferation marker Ki-67: significantly reduced in the candidate compound-treated group compared to the TZMB-treated group
HER2
  HER2 levels: significant reduction in HER2 levels
MED23^D400A/H449G
  binding to double mutant MED23: unable to bind to the double mutant MED23^D400A/H449G
MED23-ELK1 PPI
  PPI inhibitory effect on MED23-ELK1: did not inhibit these PPIs
[1]
  luciferase activity: dose-dependently and significantly reduced
EGFR; 10 μM
  inhibition at 10 µM: 0%
EGFR; 25 μM
  inhibition at 25 µM: 0%
HER2 protein
  HER2 protein expression level: significantly downregulate HER2 gene and protein expression levels in a dose-dependent manner
